These results are taken from patent US8283361B2 (AstraZeneca AB, priority 2008, dated 2012).

For experiment [1], the target named is S. aureus GyrB ATPase (Staphylococcus aureus, UniProt P0A0K8). Briefly: biochemical. The note with it: compound at 1 μM; one value per test if tested more than once; read-out: % Inhibition of S. aureus GyrB ATPase. In outline:
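IC50 values derive from 10-point titrations of compound (in DMSO). Phosphate formed from 250 μM ATP was quantified by acidic molybdate/malachite green after quenching.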

Experiment [2] concerns Streptococcus pneumoniae. Briefly: Bacterial susceptibility testing in liquid media (MIC). It counts as cell-based. The note with it: against Streptococcus pneumoniae; lowest concentration reducing growth by 80% or more. From the text: Compounds may be tested for antimicrobial activity by susceptibility testing in liquid media. Compounds may be dissolved in dimethylsulfoxide and tested in 10 doubling dilutions in the susceptibility assays. The organisms used in the assay may be grown overnight on suitable agar media and then suspended in a liquid medium appropriate for the growth of the organism. The suspension can be a 0.5 McFarland and a further 1 in 10 dilution can be made into the same liquid medium to prepare the final organism suspension in 100 μL. Plates can be incubated under appropriate conditions at 37° C. for 24 hrs prior to reading. The Minimum Inhibitory Concentration (MIC) may be determined as the lowest drug concentration able to reduce growth by 80% or more.

In general, inhibition refers to the drop in the measured response relative to a control, in per cent. The term MIC denotes the lowest concentration found to suppress growth. Higher therefore signals weaker potency.

≈ marks a conversion by molar mass, not a printed value.

S. aureus GyrB ATPase, sequence (P0A0K8 whole entry): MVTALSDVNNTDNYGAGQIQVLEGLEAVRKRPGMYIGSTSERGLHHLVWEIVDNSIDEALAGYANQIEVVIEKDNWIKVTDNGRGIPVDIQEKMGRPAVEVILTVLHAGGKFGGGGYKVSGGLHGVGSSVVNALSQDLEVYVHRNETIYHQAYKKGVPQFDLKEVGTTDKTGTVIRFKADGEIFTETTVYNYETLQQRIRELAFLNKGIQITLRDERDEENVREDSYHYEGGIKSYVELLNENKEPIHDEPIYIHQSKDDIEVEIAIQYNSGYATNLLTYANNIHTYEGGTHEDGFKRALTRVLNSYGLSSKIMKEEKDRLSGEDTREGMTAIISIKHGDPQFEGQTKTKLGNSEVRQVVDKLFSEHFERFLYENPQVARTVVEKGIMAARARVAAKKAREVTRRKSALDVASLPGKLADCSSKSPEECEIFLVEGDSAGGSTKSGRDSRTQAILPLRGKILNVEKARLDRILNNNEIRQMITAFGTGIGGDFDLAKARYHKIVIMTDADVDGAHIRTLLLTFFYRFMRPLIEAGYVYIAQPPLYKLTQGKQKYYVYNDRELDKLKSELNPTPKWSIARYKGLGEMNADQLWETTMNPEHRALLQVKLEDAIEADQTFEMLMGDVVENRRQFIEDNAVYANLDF
S. aureus GyrB ATPase, sequence (P0AES4 whole entry, further chain): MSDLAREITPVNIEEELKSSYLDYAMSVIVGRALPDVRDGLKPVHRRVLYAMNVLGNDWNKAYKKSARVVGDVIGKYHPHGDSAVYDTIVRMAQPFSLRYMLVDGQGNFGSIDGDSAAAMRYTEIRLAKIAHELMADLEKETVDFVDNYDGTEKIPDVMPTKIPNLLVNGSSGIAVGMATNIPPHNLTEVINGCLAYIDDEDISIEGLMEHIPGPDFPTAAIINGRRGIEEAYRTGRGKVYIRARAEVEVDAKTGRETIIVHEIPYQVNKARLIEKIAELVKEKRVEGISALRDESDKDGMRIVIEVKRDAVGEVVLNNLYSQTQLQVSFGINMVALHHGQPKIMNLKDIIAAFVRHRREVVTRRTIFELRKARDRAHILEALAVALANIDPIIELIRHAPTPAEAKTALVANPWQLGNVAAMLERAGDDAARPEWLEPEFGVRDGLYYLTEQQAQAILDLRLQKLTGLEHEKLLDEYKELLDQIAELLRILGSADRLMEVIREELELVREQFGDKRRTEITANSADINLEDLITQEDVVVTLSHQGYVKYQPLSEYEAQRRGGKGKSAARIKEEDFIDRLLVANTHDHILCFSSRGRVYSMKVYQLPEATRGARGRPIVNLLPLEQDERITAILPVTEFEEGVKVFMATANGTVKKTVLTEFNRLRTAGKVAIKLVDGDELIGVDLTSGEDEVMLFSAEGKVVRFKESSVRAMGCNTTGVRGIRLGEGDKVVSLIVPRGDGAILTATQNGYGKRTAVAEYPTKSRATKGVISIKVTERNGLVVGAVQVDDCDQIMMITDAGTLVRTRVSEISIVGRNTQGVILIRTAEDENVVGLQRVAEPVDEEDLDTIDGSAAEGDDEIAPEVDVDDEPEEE

On to `CCNC(=O)Nc1cc(-c2nc(C(F)(F)F)cs2)c(-c2ccc3c(=O)c(C(=O)O)cn(CC)c3c2)cn1` [Example 9, 1-ethyl-7-(6-(3-ethylureido)-4-(4-trifluoromethylthiazol-2-yl)pyridin-3-yl)-4-oxo-1,4-dihydroquinoline-3-carboxylic acid], for which the inhibition at 1 µM in experiment [1] amounted to 106%. This molecule also gave an MIC in experiment [2] of 0.02 µM (≈ 0.0106 µg/mL).
